Target: T1, human ANO6 (Homo sapiens, UniProt Q4KMQ2)
T1 construct: expressed in transfected cells
T1 sequence (Q4KMQ2 1-931 isoform Q4KMQ2-2): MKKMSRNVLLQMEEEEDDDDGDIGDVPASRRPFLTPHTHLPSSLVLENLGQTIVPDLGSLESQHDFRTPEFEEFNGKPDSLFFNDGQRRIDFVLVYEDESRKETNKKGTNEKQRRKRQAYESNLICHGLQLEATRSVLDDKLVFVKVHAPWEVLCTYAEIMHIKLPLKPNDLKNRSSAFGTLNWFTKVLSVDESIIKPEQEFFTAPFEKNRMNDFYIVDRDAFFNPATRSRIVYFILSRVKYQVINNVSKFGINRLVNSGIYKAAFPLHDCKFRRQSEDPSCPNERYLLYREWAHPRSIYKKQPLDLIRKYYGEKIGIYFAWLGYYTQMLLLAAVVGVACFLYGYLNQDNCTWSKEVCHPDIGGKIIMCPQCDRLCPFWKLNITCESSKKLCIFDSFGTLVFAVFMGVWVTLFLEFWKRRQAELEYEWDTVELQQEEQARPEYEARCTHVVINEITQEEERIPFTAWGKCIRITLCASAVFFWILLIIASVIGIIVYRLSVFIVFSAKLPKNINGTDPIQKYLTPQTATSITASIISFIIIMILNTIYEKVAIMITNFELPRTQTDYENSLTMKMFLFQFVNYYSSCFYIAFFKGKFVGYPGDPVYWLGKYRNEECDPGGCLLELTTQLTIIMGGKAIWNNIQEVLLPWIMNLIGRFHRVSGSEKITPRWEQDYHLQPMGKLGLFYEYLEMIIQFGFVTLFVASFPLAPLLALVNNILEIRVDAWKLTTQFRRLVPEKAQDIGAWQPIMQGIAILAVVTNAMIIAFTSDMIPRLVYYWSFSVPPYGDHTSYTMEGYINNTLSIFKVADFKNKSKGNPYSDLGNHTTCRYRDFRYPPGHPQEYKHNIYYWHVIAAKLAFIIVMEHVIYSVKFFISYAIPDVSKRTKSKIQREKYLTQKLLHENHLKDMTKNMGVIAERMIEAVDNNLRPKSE
Assay: LACT C2 assay (phosphatidylserine scramblase function assay)
Format: cell-based
Settings: FRT cells expressing human ANO6, 10 μM ionomycin; for inhibition at 0.1 µM: test compound 100 nM, read-out: Inhibition Level 100 nM; for inhibition at 1 µM: test compound 1 μM, read-out: Inhibition Level 1 μM
Text: Phosphatidylserine Scramblase Function Assay
1. Materials and Instruments
Ionomycin (Alomonelab, cat. #I-700), DAPI (Sigma-Aldrich, cat. #D8417), paraformaldehyde (Biosesang, cat. #P2031), Lionheart FX Automated Microscope (BioTek, Winooski), Python3 (Python Software Foundation), and OpenCV (Open Source Computer Vision Library).
Fisher rat thyroid (FRT) cells stably expressing human ANO6 (GenBank accession no. NP_001191732.1, provided by J. H. Nam, Dongguk University College of Medicine, Korea) were grown in DMEM/Ham's F-12 (1:1) medium with 10% FBS, 2 mM L-549 glutamine, 100 units/mL penicillin, and 100 μg/mL streptomycin at 37° C. and 5% CO2.
FRT cells stably expressing human ANO6 were plated in 96 well black-walled microplates at a density of 2×10^4 cells/well. After 24 hours incubation, cells were treated with the test compound (dissolved in DMSO) were treated to each well to become 1% v/v DMSO for 10 minutes, then 10 μM of ionomycin was applied. Finally each well was washed with 200 μL PBS after 10 minutes. After washout, the phosphatidylserine and nuclei were stained with PBS containing 500 nM Lactadherin-C2 (Lact-C2)-GFP, then cells were washed with 200 μL PBS. Cells were fixed with 4% paraformaldehyde for 5 minutes at room temperature. For morphological analysis, some cells were stained with fluorescently labelled DAPI for 15 minutes at room temperature. Quantitative analysis of the fluorescence intensity of Lact-C2-GFP was performed with Python3 and OpenCV. OpenCV was used to remove background and noise pixels, and the sum of all remaining pixel values was used to evaluate the fluorescence intensity of Lact-C2-GFP.
The inhibitory activity (%) of each of the test compounds was obtained by the following steps. In each row of 96 well plate, the inhibitory activity of each of the test compounds was calculated as percentages. The inhibitory activity of a negative control group to which neither compounds nor ionomycin were treated was set to be 100%, and the inhibitory activity of a positive control group to which ionomycin was treated and compounds were not treated was set to be 0%. The assay was performed in triplicate, and the results were averaged.

inhibition at 0.1 µM [%]	inhibition at 1 µM [%]	Compound
< 30	–	O=C(Nc1cccc(F)c1)c1cccc(NC2CCC(c3ccccc3)CC2)c1 (single isomer, unassigned) [Compound 188, N-(3-fluorophenyl)-3-((4-phenylcyclohexyl)amino)benzamide]
< 30	< 30	CN1CCC(CNC(=O)c2cccc(Nc3ccc(-c4cccc(F)c4)cn3)c2)CC1 [Compound 140, 3-((5-(3-fluorophenyl)pyridin-2-yl)amino)-N-((1-methylpiperidin-4-yl)methyl)benzamide]
< 30	30 to 60	Nc1ccccc1NC(=O)c1cccc(Nc2ccc(-c3cccc(F)c3)cn2)c1 [Compound 143, N-(2-aminophenyl)-3-((5-(3-fluorophenyl)pyridin-2-yl)amino)benzamide]
< 30	< 30	CN1CCC(C2CC2NC(=O)c2cccc(Nc3ccc(-c4cccc(F)c4)cn3)c2)CC1 (stereo not drawn) [Compound 144, 3-((5-(3-fluorophenyl)pyridin-2-yl)amino)-N-(2-(1-methylpiperidin-4-yl)cyclopropyl)benzamide]
< 30	< 30	CN1CCC(CNC(=O)c2cccc(Nc3ccc(-c4cccc(F)c4)cn3)c2)C1 (stereo not drawn) [Compound 145, 3-((5-(3-fluorophenyl)pyridin-2-yl)amino)-N-((1-methylpyrrolidin-3-yl)methyl)benzamide]
< 30	30 to 60	Nc1ccc(NC(=O)c2cccc(Nc3ccc(-c4cccc(F)c4)cn3)c2)cc1 [Compound 146, N-(4-aminophenyl)-3-((5-(3-fluorophenyl)pyridin-2-yl)amino)benzamide]
< 30	< 30	Nc1cccc(CCNC(=O)c2cccc(Nc3ncc(-c4cccc(F)c4)cn3)c2)c1 [Compound 147, N-(3-aminophenethyl)-3-((5-(3-fluorophenyl)pyrimidin-2-yl)amino)benzamide]
< 30	< 30	Nc1ccccc1CCNC(=O)c1cccc(Nc2ncc(-c3cccc(F)c3)cn2)c1 [Compound 148, N-(2-aminophenethyl)-3-((5-(3-fluorophenyl)pyrimidin-2-yl)amino)benzamide]
< 30	≥ 60	O=C(N[C@@H]1C[C@H]1c1ccccc1)c1ccnc(Nc2ccc(-c3ccccc3)cn2)c1 [Compound 149, N-((1R,2S)-2-phenylcyclopropyl)-2-((5-phenylpyridin-2-yl)amino)isonicotinamide]
< 30	< 30	Cc1c(C2CC2NC(=O)c2cccc(Nc3ncc(-c4cccc(F)c4)cn3)c2)cnn1C (stereo not drawn) [Compound 150, N-(2-(1,5-dimethyl-1H-pyrazol-4-yl)cyclopropyl)-3-((5-(3-fluorophenyl)pyrimidin-2-yl)amino)benzamide]
< 30	< 30	Cc1ccc(CCNC(=O)c2cccc(Nc3ncc(-c4cccc(F)c4)cn3)c2)o1 [Compound 151, 3-((5-(3-fluorophenyl)pyrimidin-2-yl)amino)-N-(2-(5-methylfuran-2-yl)ethyl)benzamide]
< 30	< 30	Cc1c(C2CC2NC(=O)c2cccc(Nc3ncc(-c4ccccc4)cn3)c2)cnn1C (stereo not drawn) [Compound 152, N-(2-(1,5-dimethyl-1H-pyrazol-4-yl)cyclopropyl)-3-((5-phenylpyrimidin-2-yl)amino)benzamide]

Continued, compound first:

Compound	inhibition at 0.1 µM [%]	inhibition at 1 µM [%]
COC(=O)c1ccc(CCNC(=O)c2cccc(Nc3ncc(-c4cccc(F)c4)cn3)c2)cc1 [Compound 126, methyl 4-(2-(3-((5-(3-fluorophenyl)pyrimidin-2-yl)amino)benzamido)ethyl)benzoate]	–	< 30
COC(=O)c1ccccc1CCNC(=O)c1cccc(Nc2ncc(-c3cccc(F)c3)cn2)c1 [Compound 127, methyl 2-(2-(3-((5-(3-fluorophenyl)pyrimidin-2-yl)amino)benzamido)ethyl)benzoate]	< 30	< 30
O=C(O)c1cccc(CCNC(=O)c2cccc(Nc3ncc(-c4cccc(F)c4)cn3)c2)c1 [Compound 129, 3-(2-(3-((5-(3-fluorophenyl)pyrimidin-2-yl)amino)benzamido)ethyl)benzoic acid]	< 30	< 30
O=C(O)c1ccc(CCNC(=O)c2cccc(Nc3ncc(-c4cccc(F)c4)cn3)c2)cc1 [Compound 130, 4-(2-(3-((5-(3-fluorophenyl)pyrimidin-2-yl)amino)benzamido)ethyl)benzoic acid]	< 30	< 30
O=C(N[C@@H]1C[C@H]1c1ccc(Cl)c(F)c1)c1cccc(Nc2ncc(-c3cccc(F)c3)cn2)c1 [Compound 131, N-((1R,2S)-2-(4-chloro-3-fluorophenyl)cyclopropyl)-3-((5-(3-fluorophenyl)pyrimidin-2-yl)amino)benzamide]	< 30	≥ 60
O=C(NCCc1ccccc1C(=O)O)c1cccc(Nc2ncc(-c3cccc(F)c3)cn2)c1 [Compound 132, 2-(2-(3-((5-(3-fluorophenyl)pyrimidin-2-yl)amino)benzamido)ethyl)benzoic acid]	< 30	< 30
O=C(NC1(c2ccccc2)CC1)c1cccc(Nc2ncc(-c3cccc(F)c3)cn2)c1 [Compound 133, 3-((5-(3-fluorophenyl)pyrimidin-2-yl)amino)-N-(1-phenylcyclopropyl)benzamide]	< 30	30 to 60
O=C(NC1(c2ccccc2)CC1)c1cccc(Nc2ccc(-c3cccc(F)c3)cn2)c1 [Compound 134, 3-((5-(3-fluorophenyl)pyridin-2-yl)amino)-N-(1-phenylcyclopropyl)benzamide]	< 30	30 to 60
CN1CCN(Cc2ccc(NC(=O)c3cccc(Nc4ncc(-c5cccc(F)c5)cn4)c3)cc2)CC1 [Compound 135, 3-((5-(3-fluorophenyl)pyrimidin-2-yl)amino)-N-(4-((4-methylpiperazin-1-yl)methyl)phenyl)benzamide]	< 30	30 to 60
N#Cc1cccc(NC(=O)c2cccc(Nc3ncc(-c4cccc(F)c4)cn3)c2)c1 [Compound 136, N-(3-cyanophenyl)-3-((5-(3-fluorophenyl)pyrimidin-2-yl)amino)benzamide]	< 30	≥ 60
O=C(Nc1cccc([N+](=O)[O-])c1)c1cccc(Nc2ncc(-c3cccc(F)c3)cn2)c1 [Compound 137, 3-((5-(3-fluorophenyl)pyrimidin-2-yl)amino)-N-(3-nitrophenyl)benzamide]	< 30	≥ 60
O=C(Nc1nccs1)c1cccc(Nc2ncc(-c3cccc(F)c3)cn2)c1 [Compound 138, 3-((5-(3-fluorophenyl)pyrimidin-2-yl)amino)-N-(thiazol-2-yl)benzamide]	< 30	≥ 60
CN1CCC(CCNC(=O)c2cccc(Nc3ccc(-c4cccc(F)c4)cn3)c2)CC1 [Compound 139, 3-((5-(3-fluorophenyl)pyridin-2-yl)amino)-N-(2-(1-methylpiperidin-4-yl)ethyl)benzamide]	< 30	< 30

Source: patent US20230080054A1 (ILDONG PHARMACEUTICAL CO., LTD., priority 2021, published 2023)
